The subject of one assay is Puccinia triticina. Briefly: Wheat brown rust (PUCCRT) disease control on wheat seedlings. Format: in vivo. Set-up: key to PUCCRT 3DC, HV activity at 100 ppm (% control rating) / PUCCRT disease control, 3DC / PUCCRT 1DP disease control rating, HV activity / PUCCRT 3DC disease control rating, HV activity / PUCCRT 3DC, LV activity at 125.1 g/H (% Control rating) / PUCCRT 1DP, LV activity at 125.1 g/H (% Control rating) / PUCCRT 3DC disease control rating, LV activity at 125.1 g/H / PUCCRT 1DP disease control rating, LV activity at 125.1 g/H / PUCCRT 3DC disease control rating, HV activity at 100 ppm / PUCCRT 1DP disease control rating, HV activity at 100 ppm / HV activity at 100 ppm PUCCRT 3DC (disease control rating) / LV activity at 125.1 g/H PUCCRT 1DP (disease control rating) / LV activity at 125.1 g/H PUCCRT 3DC (disease control rating): A: > 80; B: ≤ 80; C: Not Tested; D: No Activity Observed in the Reported Assay. To be noted: for LV activity at 125.1 g/H PUCCRT 1DP (disease control rating) / LV activity at 125.1 g/H PUCCRT 3DC (disease control rating) / PUCCRT 1DP, LV activity at 125.1 g/H (% Control rating) / PUCCRT 3DC, LV activity at 125.1 g/H (% Control rating): low volume application; for PUCCRT 1DP disease control rating, HV activity at 100 ppm / PUCCRT 3DC disease control rating, HV activity at 100 ppm: high volume application; for PUCCRT 1DP disease control rating, HV activity at 100 ppm: 1 day protectant; for PUCCRT 3DC disease control rating, HV activity at 100 ppm: 3 day curative; for HV activity at 100 ppm PUCCRT 1DP (disease control rating) / HV activity at 100 ppm PUCCRT 3DC (disease control rating): HV application.

The next assay deals with Zymoseptoria tritici. Briefly: Leaf blotch of wheat (SEPTTR) disease control on wheat seedlings. Format: in vivo. Also on record: key to SEPTTR 1DP, HV activity at 100 ppm (% control rating) / SEPTTR 3DC, HV activity at 100 ppm (% control rating) / SEPTTR disease control, 1DP / SEPTTR disease control, 3DC / SEPTTR 1DP disease control rating, HV activity / SEPTTR 3DC disease control rating, HV activity / SEPTTR 3DC, LV activity at 125.1 g/H (% Control rating) / SEPTTR 1DP, LV activity at 125.1 g/H (% Control rating) / SEPTTR 1DP disease control rating, LV activity at 125.1 g/H / SEPTTR 3DC disease control rating, LV activity at 125.1 g/H / SEPTTR 3DC disease control rating, HV activity at 100 ppm / SEPTTR 1DP disease control rating, HV activity at 100 ppm / HV activity at 100 ppm SEPTTR 3DC (disease control rating) / HV activity at 100 ppm SEPTTR 1DP (disease control rating) / LV activity at 125.1 g/H SEPTTR 1DP (disease control rating) / LV activity at 125.1 g/H SEPTTR 3DC (disease control rating): A: > 80; B: ≤ 80; C: Not Tested; D: No Activity Observed in the Reported Assay. The note with it: for LV activity at 125.1 g/H SEPTTR 1DP (disease control rating) / LV activity at 125.1 g/H SEPTTR 3DC (disease control rating) / SEPTTR 1DP, LV activity at 125.1 g/H (% Control rating) / SEPTTR 3DC, LV activity at 125.1 g/H (% Control rating): low volume application; for SEPTTR 1DP disease control rating, HV activity at 100 ppm / SEPTTR 3DC disease control rating, HV activity at 100 ppm: high volume application; for SEPTTR 1DP disease control rating, HV activity at 100 ppm: 1 day protectant; for SEPTTR 3DC disease control rating, HV activity at 100 ppm: 3 day curative; for HV activity at 100 ppm SEPTTR 1DP (disease control rating) / HV activity at 100 ppm SEPTTR 3DC (disease control rating): HV application.

The mark [1] stands for this setting: 1 Day Protectant, wheat brown rust.
The mark [2] stands for this setting: 3 Day Curative, wheat brown rust.
[3] abbreviates: 1 Day Protectant, wheat leaf blotch.
[4] abbreviates: 3 Day Curative, wheat leaf blotch.

Consider `COCC(OC(=O)C(C)NC(=O)c1nccc(OC)c1OCOC(C)=O)C(Oc1ccccc1)C(C)C` (stereo not shown) [Cmpd 1090], for which, in the assay with Puccinia triticina (setting [1]), the “LV activity at 125.1 g/H PUCCRT 1DP (disease control rating)” value is “D”. For the same compound, the “LV activity at 125.1 g/H PUCCRT 3DC (disease control rating)” value in the assay with Puccinia triticina (setting [2]) was “B (≤ 80)”. Also, the “LV activity at 125.1 g/H SEPTTR 1DP (disease control rating)” value in the assay with Zymoseptoria tritici (setting [3]) is on record as “D”. The “LV activity at 125.1 g/H SEPTTR 3DC (disease control rating)” value in the assay with Zymoseptoria tritici (setting [4]) was “D”.

`CC[C@H](CC1CCCC1)[C@@H](OCC1CC1)[C@H](C)OC(=O)[C@H](C)NC(=O)c1nccc(OC)c1OCOC(C)=O` [Cmpd 509]: the “PUCCRT 1DP, LV activity at 125.1 g/H (% Control rating)” value (“PUCCRT 1DP … (% Control rating)” below) with Puccinia triticina (1 Day Protectant) is “B (≤ 80)”. For the same compound, the “PUCCRT 3DC, LV activity at 125.1 g/H (% Control rating)” value (shortened to “PUCCRT 3DC … (% Control rating)”) in the assay on Puccinia triticina (3 Day Curative) was “B (≤ 80)”. The “SEPTTR 1DP, LV activity at 125.1 g/H (% Control rating)” value (“SEPTTR 1DP … (% Control rating)” for short) in the assay on Zymoseptoria tritici (1 Day Protectant) is recorded as “B (≤ 80)”. For the same compound, in the assay with Zymoseptoria tritici (3 Day Curative), the “SEPTTR 3DC, LV activity at 125.1 g/H (% Control rating)” value (“SEPTTR 3DC … (% Control rating)” below) was “D”.

Regarding `COc1ccnc(C(=O)NC(C)C(=O)OC(C)COCC2CC2)c1OCOC(=O)C(C)C` (stereo not shown) [Cmpd 528], the “PUCCRT 1DP … (% Control rating)” value in the assay with Puccinia triticina (1 Day Protectant) is listed as “D”. In the assay on Puccinia triticina (3 Day Curative), the “PUCCRT 3DC … (% Control rating)” value was “D”. Moreover, in the assay on Zymoseptoria tritici (1 Day Protectant), the “SEPTTR 1DP … (% Control rating)” value is on record as “D”. Also, the “SEPTTR 3DC … (% Control rating)” value with Zymoseptoria tritici (3 Day Curative) is given as “B (≤ 80)”.

`COc1ccnc(C(=O)N[C@@H](C)C(=O)O[C@@H](C)[C@H](Oc2ccc(C(F)(F)F)cc2)C(C)C)c1OC(C)=O` [Cmpd 629]: in the assay with Puccinia triticina (1 Day Protectant), the “PUCCRT 1DP … (% Control rating)” value is given as “A (> 80)”. In addition, the “PUCCRT 3DC … (% Control rating)” value in the assay with Puccinia triticina (3 Day Curative) is on record as “A (> 80)”. In the assay with Zymoseptoria tritici (1 Day Protectant), the “SEPTTR 1DP … (% Control rating)” value is on record as “B (≤ 80)”. Besides, in the assay with Zymoseptoria tritici (3 Day Curative), the “SEPTTR 3DC … (% Control rating)” value was “B (≤ 80)”.

For the compound `COc1ccnc(C(=O)NC(C)C(=O)OC(C)C(OC)c2ccccc2)c1O` (stereo not shown) [Cmpd 823], in the assay with Puccinia triticina, the “PUCCRT 1DP disease control rating, HV activity at 100 ppm” value is “B (≤ 80)” and the “PUCCRT 3DC disease control rating, HV activity at 100 ppm” value was “A (> 80)”. In addition, in the assay with Zymoseptoria tritici, the “SEPTTR 1DP disease control rating, HV activity at 100 ppm” value is recorded as “D” and the “SEPTTR 3DC disease control rating, HV activity at 100 ppm” value is on record as “B (≤ 80)”.

In the case of `COc1ccnc(C(=O)NC(C)C(=O)OC(C)C(OCC2CC2)C23CC4CC(CC(C4)C2)C3)c1O` (stereo not shown) [Cmpd 827], in the assay on Puccinia triticina, the “PUCCRT 1DP disease control rating, HV activity at 100 ppm” value is given as “A (> 80)” and the “PUCCRT 3DC disease control rating, HV activity at 100 ppm” value is “D”. Also, in the assay on Zymoseptoria tritici, the “SEPTTR 1DP disease control rating, HV activity at 100 ppm” value was “B (≤ 80)” and the “SEPTTR 3DC disease control rating, HV activity at 100 ppm” value is on record as “D”.

Turning to `COc1cc(O[C@H](CC(C)C)[C@H](C)OC(=O)[C@H](C)NC(=O)c2nccc(OC)c2O)ccc1Cl` [Cmpd 1052], the “HV activity at 100 ppm PUCCRT 1DP (disease control rating)” value in the assay with Puccinia triticina (setting [1]) was “A (> 80)”. Also, in the assay with Puccinia triticina (setting [2]), the “HV activity at 100 ppm PUCCRT 3DC (disease control rating)” value is “A (> 80)”. For the same compound, in the assay with Zymoseptoria tritici (setting [3]), the “HV activity at 100 ppm SEPTTR 1DP (disease control rating)” value is “A (> 80)”. For the same compound, the “HV activity at 100 ppm SEPTTR 3DC (disease control rating)” value with Zymoseptoria tritici (setting [4]) is recorded as “A (> 80)”.

Consider `CCOc1ccnc(C(=O)N[C@@H](C)C(=O)O[C@@H](C)[C@@H](CC(C)C)Oc2cccc(Cl)c2)c1OC(C)=O` [Cmpd 1109], for which the “LV activity at 125.1 g/H PUCCRT 1DP (disease control rating)” value in the assay on Puccinia triticina (setting [1]) is given as “B (≤ 80)”. The “LV activity at 125.1 g/H PUCCRT 3DC (disease control rating)” value with Puccinia triticina (setting [2]) was “B (≤ 80)”. Moreover, the “LV activity at 125.1 g/H SEPTTR 1DP (disease control rating)” value with Zymoseptoria tritici (setting [3]) is on record as “D”. For the same compound, the “LV activity at 125.1 g/H SEPTTR 3DC (disease control rating)” value with Zymoseptoria tritici (setting [4]) is on record as “B (≤ 80)”.

On to `CCOc1ccnc(C(=O)N[C@@H](C)C(=O)O[C@@H](C)[C@@H](CC(C)C)Oc2cccc(F)c2)c1O` [Cmpd 1039], for which the “HV activity at 100 ppm PUCCRT 1DP (disease control rating)” value in the assay with Puccinia triticina (setting [1]) is given as “A (> 80)”. In addition, in the assay on Puccinia triticina (setting [2]), the “HV activity at 100 ppm PUCCRT 3DC (disease control rating)” value was “A (> 80)”. Besides, in the assay with Zymoseptoria tritici (setting [3]), the “HV activity at 100 ppm SEPTTR 1DP (disease control rating)” value was “D”. The “HV activity at 100 ppm SEPTTR 3DC (disease control rating)” value with Zymoseptoria tritici (setting [4]) is recorded as “B (≤ 80)”.

Turning to `COc1ccnc(C(=O)N[C@@H](C)C(=O)O[C@@H](C)COC(C)(C)C)c1O` [Cmpd 341], the “PUCCRT 1DP disease control rating, HV activity” value in the assay with Puccinia triticina (HV application at 100 ppm, 1 Day Protectant, wheat brown rust) was “B (≤ 80)”. The “PUCCRT 3DC disease control rating, HV activity” value in the assay on Puccinia triticina (HV application at 100 ppm, 3 Day Curative, wheat brown rust) is “B (≤ 80)”. For the same compound, the “SEPTTR 1DP disease control rating, HV activity” value in the assay on Zymoseptoria tritici (HV application at 100 ppm, 1 Day Protectant, wheat leaf blotch) was “B (≤ 80)”. The “SEPTTR 3DC disease control rating, HV activity” value in the assay on Zymoseptoria tritici (HV application at 100 ppm, 3 Day Curative, wheat leaf blotch) is reported as “B (≤ 80)”.

(Values after patent publication US20180000085A1, “USE OF PICOLINAMIDE COMPOUNDS WITH FUNGICIDAL ACTIVITY” (DOW AGROSCIENCES LLC, priority 2014, published 2018).)
